Measurements taken from US20190084968A1, “FUMAGILLOL HETEROCYCLIC COMPOUNDS AND METHODS OF MAKING AND USING SAME” (Zafgen, Inc., priority 2015, published 2019).
pIC50: −log10 of the molar value. Structures can show the parent of a compound that is named as a salt.

Assays:
[1] = tested on: embryo/fetal development in pregnant Sprague Dawley rats; conditions: 6 mpk subcutaneously once every three days, Gestation Days 6-18, pregnant rats
Method: The objective of this study design was to evaluate the potential effects of disclosed compounds on embryo/fetal development when given subcutaneously to pregnant rats once every three days during the critical period of organogenesis (Gestation Days 6-18). Female, Sprague Dawley rats, approximately 10 weeks of age, time bred, were ordered from a certified vendor and housed individually housed in stainless steel cages suspended over flush pans, on a 12-hour light-dark cycle (0700-1900) at 20-26° C. and 30-70% humidity. Rats were fed a standard rodent chow and provided water ad libitum. Rats were received and housed in the facility for a period of approximately 1 to 2 days.
Compounds were formulated using 100% DMSO mixed in Sterile Water for Injection, resulting in 2% DMSO solution in water. If necessary, due to limited solubility of a test article, a higher percentage of DMSO solution in water was used. Groups of 8 mated and presumed pregnant female rats were given subcutaneous doses of vehicle or test article, once every three days, beginning on Gestation Day 6 and ending on Gestation Day 18 (Days 6, 9, 12, 15, and 18), maintained two more days, and then euthanized and necropsied on Gestation Day 20. Body weights was recorded for all animals on Gestation Days 5 (purpose of randomization), 6, 9, 12, 15, 18, and 20 (scheduled euthanasia). Food consumption by weight was recorded on Gestation Days 6, 9, 12, 15, 18, and 20 (scheduled termination).
At necropsy, the dams were examined visually for external abnormalities including palpable masses. The abdominal, thoracic, and cranial cavities and their contents were examined for abnormalities and findings will be recorded. The reproductive tract were examined to record the number of ovarian corpora lutea, the number and location of uterine implantation sites noting the position of the cervix, and the number of early resorptions, late resorptions, live fetuses, and dead fetuses. For dead fetuses and late resorptions, crown-to-rump length and weight were recorded, if possible, and the fetus was discarded. For viable fetuses, weight, sex, and grossly visible external abnormalities were recorded.

[2] = tested on: Diet Induced Obese (DIO) C57BL/6 mice; test: 10 day DIO mouse model (body weight, food intake, hematology, blood chemistry); format: in vivo; conditions: mouse, in vivo, sc, 0.3 mg/kg
From the text: The objective of this study design was to investigate the efficacy of disclosed compounds in a 10 day DIO mouse model. Effects on body weight, food intake, hematology and blood chemistry were the primary readouts of this study design. […] Mice were fed Research Diets D12492 (60% Kcal fat, 20% Kcal carbohydrate and 20% protein) and provided water ad libitum. DIO mice were received and housed in the facility for approximately two weeks prior to the start of test article administration. On Day −4 or −3, mice were randomized into study groups based on body weight and body weights were continued to be recorded daily for the duration of the study. Daily food intake was assessed starting on Study Day −2 by weighing of the food with hopper together to avoid loss of food in transfer.
(§1) Compounds were formulated into a 100% DMSO stock (at 9 mg/mL) prior to the start, and further diluted into the target working concentration using the vehicle of 10% DMSO in water. Prior to test article administration, starting on Day −3 a dosing acclimation occured with all animals receiving a subcutaneous injection of vehicle (10% DMSO) only for 3 days. Starting on Day 1, test compounds or vehicle were administered based on individual body weight, subcutaneously, once a day for 10 days. All mice were sacrificed on Day 11, 24 hours following the final dosing on Day 10. After sacrifice, whole blood was collected and analyzed for hematology and blood chemistry parameters.
(§2) Compounds were tested vs. vehicle at various doses (1.0, 0.5, 0.3, 0.1, 0.03 mpk sc (mg per kg animal weight delivered subcutaneously), and the results are shown in Table 2 below.

[3] = tested on: Sprague Dawley rats on high fat diet (DIO); test: 11 day rat DIO model (body weight, food intake, hematology, blood chemistry); format: in vivo; conditions: rat, in vivo, sc
From the text: The objective of this study design is to investigate the efficacy of disclosed compounds in an 11 day rat DIO model used to screen compounds for pharmacologic efficacy on endpoints related to obesity and metabolism. Effects on body weight, food intake, hematology and blood chemistries were the primary readouts of this study design. […] Rats were fed Research Diets D12451 (45% High Fat) and provided water ad libitum. Rats were received and housed in the facility for at least two or three weeks prior to start of test article administration. On Day −4 or −3, rats were randomized into study groups based on body weight and body weights were continued to be recorded daily for the duration of the study. Daily food intake was assessed starting on Study Day −2 by weighing the hopper including the food to avoid loss of food in transfer.
as §1, with “for 11” for “for 10”, “All animals” for “All mice”, “11, approximately 2” for “11, 24”, “Day 11.” for “Day 10.”
as §2

[4] = target: T1, recombinant human MetAP2 (Homo sapiens, UniProt P50579); test: Recombinant human MetAP2 enzyme inhibition assay (MAS peptide / amino acid oxidase / Amplex UltraRed); format: biochemical
T1 construct: Flag; made in house
Method: Compounds are tested for their capacity to inhibit recombinant human MetAP2 activity using the following assay.
Flag tagged Human recombinant MetAP2 expressed and isolated for use as the enzyme source. 10 mM stock solutions of compounds were prepared in 100% DMSO and further diluted in 100% DMSO required concentration to 1 mM stocks. The stock compound solutions and DMSO vehicle controls were diluted to target final compound concentrations using assay buffer to a final concentration of 50 mM HEPES containing 100 mM NaCl, pH adjusted to 7.5. The MAS peptide was formulated to a 7.5 mM stock in distilled water and prior to use further diluted 1:4. […] 40 μl of enzyme was mixed with 100 μl of MnCl2 then further diluted in assay buffer to a final concentration of 16 μg/ml. To test for compound effect on MetAP2 enzyme activity, 5 μl of test compound, 10 μl of MAS substrate/amino acid oxidase mixture, 10 μl of MetAP2 was added to test wells in a 384 well black plate with blank wells containing no enzyme, replaced with 10 μl of assay buffer. All compounds were tested in duplicate on two occasions on the same day.
The plate was sealed with a TopSeal A cover and mixed briefly on an orbital mixer at 900 rpm. The plate was incubated for a further 25 minutes at 25° C. A 5× stock of Amplex buffer was prepared (0.25M sodium phosphate, pH 7.4) and stored at 4° C. When preparing for use the stock was diluted with distilled water. […] 25 μl detection reagent was added to each well of the test plate, which was re-sealed and mixed briefly on an orbital shaker. […] At the end of the MetAP2 incubation 25 μl Amplex/HRP mixture per well was added and the plate read plate on a plate reader.

T1 sequence (P50579 whole entry): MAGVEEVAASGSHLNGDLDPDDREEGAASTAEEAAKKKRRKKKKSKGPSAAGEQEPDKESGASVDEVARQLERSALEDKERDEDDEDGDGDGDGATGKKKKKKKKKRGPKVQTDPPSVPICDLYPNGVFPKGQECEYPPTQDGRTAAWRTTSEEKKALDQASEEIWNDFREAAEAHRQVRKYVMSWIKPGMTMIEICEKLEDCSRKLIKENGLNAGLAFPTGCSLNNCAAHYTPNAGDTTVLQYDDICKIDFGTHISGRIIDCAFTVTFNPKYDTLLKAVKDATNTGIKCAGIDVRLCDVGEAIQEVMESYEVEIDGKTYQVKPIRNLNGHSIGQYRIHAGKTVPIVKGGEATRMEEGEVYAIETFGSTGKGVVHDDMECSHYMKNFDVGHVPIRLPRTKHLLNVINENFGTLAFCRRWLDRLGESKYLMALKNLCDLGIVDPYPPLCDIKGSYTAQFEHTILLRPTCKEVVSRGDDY

SMILES | Rat Embryofetal @6 mpk [1] | DIO Mouse 10-day weight loss vs vehicle at indicated dose [2] | DIO Rat 11-day weight loss vs vehicle at indicated dose ([3]; 0.3 mg/kg) | DIO Rat 11-day weight loss vs vehicle at indicated dose ([3]; 1 mg/kg) | pIC50 [4]
CO[C@@H]1[C@H](OC(=O)N2CC(CCN3CC(C)(O)C3)C2)CC[C@]2(CO2)[C@H]1[C@@]1(C)O[C@@H]1CC=C(C)C [Example 9, (3R,4S,5S,6R)-5-methoxy-4-((2R,3R)-2-methyl-3-(3-methylbut-2-enyl)oxiran-2-yl)-1-oxaspiro[2.5]octan-6-yl 3-(2-(3-hydroxy-3-methylazetidin-1-yl)ethyl)azetidine-1-carboxylate formate] | Positive | 7.4% | 5.5% | 4.8% | > 7.30
CO[C@@H]1[C@H](OC(=O)N2CC(CCN3CC4C(C3)C4(F)F)C2)CC[C@]2(CO2)[C@H]1[C@@]1(C)O[C@@H]1CC=C(C)C (stereo partly drawn) [Example 22, (3R,4S,5S,6R)-5-methoxy-4-((2R,3R)-2-methyl-3-(3-methylbut-2-enyl)oxiran-2-yl)-1-oxaspiro[2.5]octan-6-yl 3-(2-(6,6-difluoro-3-azabicyclo[3.1.0]hexan-3-yl)ethyl)azetidine-1-carboxylate formate] | Negative | 14% |  |  | > 7.30
CO[C@@H]1[C@H](OC(=O)N2CC(CCN3CC(O)C3)C2)CC[C@]2(CO2)[C@H]1[C@@]1(C)O[C@@H]1CC=C(C)C [Example 6, (3R,4S,5S,6R)-5-methoxy-4-((2R,3R)-2-methyl-3-(3-methylbut-2-enyl)oxiran-2-yl)-1-oxaspiro[2.5]octan-6-yl 3-(2-(3-hydroxyazetidin-1-yl)ethyl)azetidine-1-carboxylate formate] | Positive | 11.8% | 0.8% | 4.6% | > 7.30
